Series [1] deals with strains of species belonging to Saccharomonospora genus. The experiment in a line: primycin MIC (primycin tolerance). The class given is cell-based.
Series [2] has as its system Staphylococcus epidermidis (77 strains). The settings on record: broth dilution assay; cited from earlier work. On the technique in general: In broth dilution the organism is exposed to a series of concentrations in liquid medium.
Series [3] deals with Staphylococcus sp. The experiment in a line: primycin MIC, antimicrobial spectrum re-evaluation. In kind it is cell-based. The settings on record: culture collection strains. The source says: (§1) In our research leading to our new findings we assayed the antimicrobial spectrum of primycin in order to re-evaluate the minimal inhibitory concentration (MIC) values known from the literature and to determine the primycin susceptibility of new isolates. Comparative test results on strains of Gram-positive bacterial species of Microbial strain culture collection of PTE TTK BI Department of General and Environmental Microbiology were in agreement with the literature data with primycin MIC values of 0.06 mg/L for Staphylococcus sp. and 0.03 mg/L for Bacillus sp. respectively. Primycin MIC values higher than 1 mg/L for any of the Gram-positive strains tested were not detected.

Series [4] deals with Bacillus sp. In words: primycin MIC, antimicrobial spectrum re-evaluation. In kind it is cell-based. Conditions: culture collection strains.
Source text: as §1

Series [5] concerns Gram-positive bacteria and Mycobacterium species. Conditions: cited from earlier work.
For series [6] the following is noted: in water; cited from earlier work.
Series [7] relates to Streptococcus faecalis (76 strains). Conditions: broth dilution assay; cited from earlier work.
For series [8], the system named is one strain of Listeria monocytogenes. The settings on record: broth dilution assay; cited from earlier work.
For series [9], the system named is Staphylococcus aureus (50 strains). Conditions: broth dilution assay; cited from earlier work.
Series [10] concerns Saccharomonospora aurea strains. In words: primycin MIC (primycin tolerance), summary statement. In kind it is cell-based. The source says: As it is known that antibiotic-producing strains are less susceptible to the antibiotic produced by themselves and the primordials of the existing primycin-producing strain also was selected by primycin tolerance level to enhance their production capability, it has been suspected that lowered primycin susceptibility of Saccharomonospora azurea strains can be the outcome of the production of an antibiotic with a mode of action analogue to that of primycin. The literature concordantly states that primycin has a unique mode of action, therefore it could be suspected from our surprising findings that the antibiotic supposedly produced by these strains can be primycin itself. However, there is no literature on primycin production of Saccharomonospora azurea or any other presently accepted species of Saccharomonospora genera.

The test system of series [11] is in vitro cell cultures. The settings on record: cited from earlier work.
For series [12], the system named is Gram-positive strains. In words: primycin MIC, antimicrobial spectrum re-evaluation. In kind it is cell-based, Gram-positive bacterial species. The settings on record: any of the Gram-positive strains tested.
Source text: as §1

In series [13] the test system is S. xinjiangensis (44391). In words: primycin MIC (primycin tolerance). The class given is cell-based. Conditions: S. xinjiangensis DSM 44391. The method, then:
(§2) Strains were grown for seven days and once the colonies were removed and extracted, they were tested for antimicrobial production in agar diffusion tests. […] For this comparison we repeatedly used the strains of the culture collection of Department which had preliminary been tested for primycin susceptibility. Our work hypothesis was further supported by our experience that a butanol-ethanol-water mixture (in the ratio of 1:1:2 respectively) which is an effective solvent of primycin was suitable for the extraction of the antibiotic. […] Thereafter we carried out shake flask fermentations with the Saccharomonospora sp. strains suitable for the process. Production results on shake flasks of the strains tested were congruent to their cultivations on solid media. […] Table 1. Primycin tolerance and antibiotic production of Saccharomonospora isolates. *: S. azurea strains identified and registered on the name S. caesia earlier: […]

The subject of series [14] is Saccharomonospora azurea DSM 44631. In words: primycin MIC (primycin tolerance). The class given is cell-based. Conditions: S. azurea DSM 44631. The method, then:
as §2

For series [15], the system named is Saccharomonospora azurea (caesia) DSM 43068. The experiment in a line: primycin MIC (primycin tolerance). The class given is cell-based. The settings on record: S. azurea (caesia) DSM 43068. As for the experimental part: as §2
Series [16] concerns Saccharomonospora azurea (caesia) DSM 43680. The experiment in a line: primycin MIC (primycin tolerance). The class given is cell-based. Conditions: S. azurea (caesia) DSM 43680. The method, then:
as §2

The test system of series [17] is S. viridis (43017). In words: primycin MIC (primycin tolerance). In kind it is cell-based. Conditions: S. viridis DSM 43017. As for the experimental part:
as §2

Series [18] concerns S. cyanea (44106). The experiment in a line: primycin MIC (primycin tolerance). The class given is cell-based. The settings on record: S. cyanea DSM 44106. As for the experimental part: as §2
The test system of series [19] is Saccharomonospora azurea (caesia) DSM 43044. In words: primycin MIC (primycin tolerance). In kind it is cell-based. The settings on record: S. azurea (caesia) DSM 43044. The method, then:
as §2

The test system of series [20] is S. glauca (43769). The experiment in a line: primycin MIC (primycin tolerance). The class given is cell-based. The settings on record: S. glauca DSM 43769. As for the experimental part: as §2
Series [21] deals with Gram-negative species. In words: primycin antimicrobial spectrum re-evaluation. In kind it is cell-based.
Source text: as §1

In the case of primycin, the minimum inhibitory concentration (MIC) is 8 to 64 µg/mL in series [1]; 0.06 µg/mL in series [3]; 0.03 µg/mL in series [4]; 64 µg/mL in series [10]; ≤ 1 µg/mL in series [12]. The “minimal inhibitory concentrations (MIC)” value in [2], in series [7], in series [8] and in [9] was 0.12 to 0.5 µg/mL throughout. For the same substance, the bacteriostatic effect result in series [5] is “has bacteriostatic effect”. Besides, the solubility result in series [6] is “poorly soluble in water”. The toxicity result in series [11] was “not shown to be toxic”. Moreover, the “Primycin MIC” value is 1 µg/mL in series [13]; 64 µg/mL in series [14]; 64 µg/mL in [15]; 64 µg/mL in [16]; 0,5 mg/L in series [17]; 8 µg/mL in series [18]. The results for the “Primycin MIC” value in series [19] and in series [20] were 64 µg/mL and 8 µg/mL, respectively. Further, the effectiveness entry in [21] is listed as “did not prove to be effective”.

For orientation: MIC means the least concentration at which growth counts as inhibited. A lower MIC goes with greater potency.
